In assay [1] the target is T1, truncated human IRE1a WT protein, containing the catalytic part (aa 547-977) (Homo sapiens, UniProt O75460).
T1 construct: containing the catalytic part (aa 547-977); made in house
In words: IRE1a biochemical enzyme splice assay. The settings on record: 20 nM protein, 500 nM fluorescently quenched IRE1a substrate, 40 min at room temperature; read-out: EnzymeSplice_hIRE1a_IC50 (IC50). The method, then:
A truncated human IRE1a WT protein, containing the catalytic part (aa 547-977) was expressed in baculovirus. The purified protein (20 nM) was incubated with a fluorescently quenched IRE1a substrate (500 nM; 5′/6-FAM-CAGUCCGCAGCACUG-BHQ-1/3′) and a titration of inhibitor, starting at 10 μM (final DMSO concentration=1%) for 40 min at room temperature in assay buffer. Reactions were carried out in a final volume of […] in a 384 well assay plate. The reaction was stopped, and the plate was spun for 1 minute at 1000 rpm. The fluorescence intensity of the IRE1a-substrate was measured using an fluorescent plate reader (Ex 485 nm/Em 535 nm, Perkin Elmer Envision).

Another assay has as its system hIRE1a. Kind of assay: XBP1-Luc cell assay. The class given is cell-based. As to conditions: Homo sapiens; HEK293-pLVX-XBP1.fluc-IRES-Puro cells, 600 nM Thapsigargin 1 hour, then inhibitor 6 hours; read-out: fLuc_XBP1_hIRE1a_HEK293_IC50 (IC50). The method, then:
HEK293-pLVX-XBP1.fluc-IRES-Puro cells (ChemPartner) were collected into DMEM (Invitrogen, 11995-065) with 10% FBS (BI, 04-002-1A). Cells were seeded at 1.5E4 cells/well in BioCoat Poly-D-Lysine Black/Clear flat bottom 96 well plate (Corning, 356640) and incubated overnight at 37° C. and 5% CO2. Cells were treated with 600 nM Thapsigargin (Sigma, T9033) for 1 hour at 37° C. and 5% CO2 prior to inhibitor addition. A titration of inhibitor, starting at 30 μM was added to wells for an additional 6 hours at 37° C. and 5% CO2. 100 μl of Steady-Glo Luciferase assay reagent (Promega, E2550) was added to plate and the plate was shaken for 2 minutes. Signal was read using EnSpire (Perkin Elmer).

T1 sequence (O75460 547-977): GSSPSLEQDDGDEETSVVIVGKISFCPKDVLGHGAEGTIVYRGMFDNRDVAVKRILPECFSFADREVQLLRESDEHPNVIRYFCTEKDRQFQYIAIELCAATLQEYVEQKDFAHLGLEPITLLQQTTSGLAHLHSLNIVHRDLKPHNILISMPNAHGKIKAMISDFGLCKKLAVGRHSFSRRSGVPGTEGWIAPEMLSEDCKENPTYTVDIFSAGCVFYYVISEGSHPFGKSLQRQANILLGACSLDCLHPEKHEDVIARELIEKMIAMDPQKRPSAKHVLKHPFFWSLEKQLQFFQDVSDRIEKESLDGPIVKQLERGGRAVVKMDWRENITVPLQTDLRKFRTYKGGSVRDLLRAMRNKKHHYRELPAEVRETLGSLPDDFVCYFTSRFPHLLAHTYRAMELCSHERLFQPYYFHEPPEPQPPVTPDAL

One may read the IC50 as the concentration that inhibits the measured activity by half. For `CCc1cc(-c2ccc3c(NS(=O)(=O)c4ccccc4C)ncnn23)cc2cnc(N[C@H]3CCCNC3)nc12` [Compound I-2, (S)—N-(7-(8-ethyl-2-(piperidin-3-ylamino)quinazolin-6-yl)pyrrolo[2,1-f][1,2,4]triazin-4-yl)-2-methylbenzenesulfonamide], the 50% inhibitory concentration (IC50) in assay [1] is less than 0.1 µM; in the assay with hIRE1a it was less than 1 µM.

In the case of `CCc1cc(-c2ccc3c(NS(=O)(=O)c4ccc(OC(F)F)cc4)ncnn23)cc2cnc(N[C@H]3CCCNC3)nc12` [Compound I-5, (S)-4-(difluoromethoxy)-N-(7-(8-ethyl-2-(piperidin-3-ylamino)quinazolin-6-yl)pyrrolo[2,1-f][1,2,4]triazin-4-yl)benzenesulfonamide], the half-inhibitory concentration (IC50) in assay [1] was less than 0.1 µM; with hIRE1a, 1 to 10 µM.

Turning to `CCc1cc(-c2ccc3c(NS(=O)(=O)CCC(F)(F)F)ncnn23)cc2cnc(N[C@H]3CCCNC3)nc12` [Compound I-9, (S)—N-(7-(8-ethyl-2-(piperidin-3-ylamino)quinazolin-6-yl)pyrrolo[2,1-f][1,2,4]triazin-4-yl)-3,3,3-trifluoropropane-1-sulfonamide], the half-maximal inhibitory concentration (IC50) in assay [1] was less than 0.1 µM; in the assay with hIRE1a, 1 to 10 µM.

In the case of `CCc1cc(-c2ccc3c(NS(=O)(=O)C4CCCC4)ncnn23)cc2cnc(N[C@H]3CCCNC3)nc12` [Compound I-15, (S)—N-(7-(8-ethyl-2-(piperidin-3-ylamino)quinazolin-6-yl)pyrrolo[2,1-f][1,2,4]triazin-4-yl)cyclopentanesulfonamide], the values for the half-inhibitory concentration (IC50) (in assay [1]; in the assay with hIRE1a) were less than 0.1 µM and less than 1 µM, respectively.

For `CCc1cc(-c2ccc3c(NS(=O)(=O)Cc4cccc(F)c4F)ncnn23)cc2cnc(N[C@H]3CCCNC3)nc12` [Compound I-21, (S)-1-(2,3-difluorophenyl)-N-(7-(8-ethyl-2-(piperidin-3-ylamino)quinazolin-6-yl)pyrrolo[2,1-f][1,2,4]triazin-4-yl)methanesulfonamide], the results for the half-inhibitory concentration (IC50) (in assay [1]; in the assay on hIRE1a) were less than 0.1 µM and less than 1 µM, respectively.

With `CCc1cc(-c2ccc3c(NS(=O)(=O)Cc4ccccc4Cl)ncnn23)cc2cnc(N[C@H]3CCCNC3)nc12` [Compound I-25, (S)-1-(2-chlorophenyl)-N-(7-(8-ethyl-2-(piperidin-3-ylamino)quinazolin-6-yl)pyrrolo[2,1-f][1,2,4]triazin-4-yl)methanesulfonamide], the IC50 in assay [1] is less than 0.1 µM; in the assay with hIRE1a, less than 1 µM.

Turning to `CCc1cc(-c2ccc3c(NS(=O)(=O)N4CCCC4)ncnn23)cc2cnc(N[C@H]3CCCNC3)nc12` [Compound I-30, Pyrrolidine-1-sulfonic acid {7-[8-ethyl-2-(piperidin-3-ylamino)-quinazolin-6-yl]-pyrrolo[2,1-f][1,2,4]triazin-4-yl}-amide], the IC50 in assay [1] is less than 0.1 µM; in the assay with hIRE1a, less than 1 µM.

For `CCc1cc(-c2cnc3c(NS(=O)(=O)c4ccccc4Cl)nccn23)cc2cnc(N[C@H]3CCCNC3)nc12` [Compound I-6, (S)-2-chloro-N-(3-(8-ethyl-2-(piperidin-3-ylamino)quinazolin-6-yl)imidazo[1,2-a]pyrazin-8-yl)benzenesulfonamide], the half-maximal inhibitory concentration (IC50) was less than 0.1 µM in assay [1] and less than 1 µM with hIRE1a.

On to `CCc1cc(-c2ccc3c(NS(=O)(=O)c4ccccc4Cl)ncnn23)cc2cnc(NC3CC4(COC4)C3)nc12` [Compound I-28, N-(7-(2-((2-oxaspiro[3.3]heptan-6-yl)amino)-8-ethylquinazolin-6-yl)pyrrolo[2,1-f][1,2,4]triazin-4-yl)-2-chlorobenzenesulfonamide], for which the IC50 in assay [1] was 0.1 to 1 µM; in the assay on hIRE1a, more than 10 µM.

On to `CCc1cc(-c2ccc3c(NS(=O)(=O)c4ccccc4Cl)ncnn23)cc2cnc(N[C@H]3CC[C@H](N)CC3)nc12` [Compound I-32], for which the IC50 in assay [1] is less than 0.1 µM; in the assay with hIRE1a, less than 1 µM.

For the compound `CCc1cc(-c2ccc3c(NS(=O)(=O)c4ccccc4Cl)ncnn23)cc2cnc(N[C@H]3CC[C@H](O)CC3)nc12` [Compound I-29, 2-chloro-N-(7-(8-ethyl-2-(((1r,4r)-4-hydroxycyclohexyl)amino)quinazolin-6-yl)pyrrolo[2,1-f][1,2,4]triazin-4-yl)benzenesulfonamide], the IC50 in assay [1] was less than 0.1 µM; in the assay on hIRE1a it was 1 to 10 µM.

For `CCc1cc(-c2n[nH]c3c(NS(=O)(=O)c4ccccc4Cl)cccc23)cc2cnc(N[C@H]3CCCNC3)nc12` [Compound I-19, (S)-2-chloro-N-(3-(8-ethyl-2-(piperidin-3-ylamino)quinazolin-6-yl)-1H-indazol-7-yl)benzenesulfonamide], the values for the half-maximal inhibitory concentration (IC50) (in assay [1]; in the assay on hIRE1a) were less than 0.1 µM and less than 1 µM, respectively.

With `CCc1cc(-c2ccc3c(NS(=O)(=O)c4ccccc4Cl)ncnn23)cc2cnc(N[C@@H]3CNC[C@H](C)C3)nc12` [Compound I-31], the IC50 is less than 0.1 µM in assay [1] and less than 1 µM with hIRE1a.

As for `CCc1cc(-c2ccc3c(NS(=O)(=O)c4ccccc4Cl)ncnn23)cc2cnc(N[C@H]3CCCCNC3)nc12` [Compound I-12, (S)—N-(7-(2-(azepan-3-ylamino)-8-ethylquinazolin-6-yl)pyrrolo[2,1-f][1,2,4]triazin-4-yl)-2-chlorobenzenesulfonamide], the IC50 was less than 0.1 µM in assay [1] and less than 1 µM in the assay on hIRE1a.

These data come from patent publication US20240262830A1, “IRE1A MODULATORS AND USES THEREOF” (Nimbus Iaso, Inc., priority 2020, published 2024).
